Legend:
human Nav1.1 and Navβ1 = human Nav1.1 and Navβ1 (Homo sapiens, UniProt P35498); assay: cell-based
5-HT2A receptors = biological target: T1, 5-HT2A receptors (Rattus norvegicus, UniProt P14842); details: Xenopus oocytes; cited from earlier work
T1 construct: host or cells: Xenopus oocytes (transient)

rat 5-HT2A receptors = rat 5-HT2A receptors (Rattus norvegicus, UniProt P14842); details: [125I]-DOI competition binding; cited from earlier work
5-HT2A [1] = biological target: T2, 5-HT2A (Homo sapiens, UniProt P28223); details: Ca2+ mobilization; cited from earlier work
T2 sequence (P28223 whole entry): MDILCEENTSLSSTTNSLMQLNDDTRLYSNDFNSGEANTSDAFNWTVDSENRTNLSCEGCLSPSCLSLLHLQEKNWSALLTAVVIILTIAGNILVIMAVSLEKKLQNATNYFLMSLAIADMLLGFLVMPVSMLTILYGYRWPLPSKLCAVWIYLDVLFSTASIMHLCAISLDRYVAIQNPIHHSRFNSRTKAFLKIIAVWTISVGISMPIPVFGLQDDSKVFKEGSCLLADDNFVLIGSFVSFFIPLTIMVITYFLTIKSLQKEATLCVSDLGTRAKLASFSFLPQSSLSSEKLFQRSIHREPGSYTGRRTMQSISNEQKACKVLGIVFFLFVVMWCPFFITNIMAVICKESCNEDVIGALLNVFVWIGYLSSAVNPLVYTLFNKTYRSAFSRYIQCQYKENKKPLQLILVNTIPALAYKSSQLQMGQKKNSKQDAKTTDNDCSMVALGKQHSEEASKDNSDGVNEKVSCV

5-HT2A [2] = biological target: T2, 5-HT2A; details: cited from earlier work
5-HT2B = 5-HT2B (Homo sapiens, UniProt P41595); details: Ca2+ mobilization; cited from earlier work
Chain of 5-HT2B (P41595 whole entry): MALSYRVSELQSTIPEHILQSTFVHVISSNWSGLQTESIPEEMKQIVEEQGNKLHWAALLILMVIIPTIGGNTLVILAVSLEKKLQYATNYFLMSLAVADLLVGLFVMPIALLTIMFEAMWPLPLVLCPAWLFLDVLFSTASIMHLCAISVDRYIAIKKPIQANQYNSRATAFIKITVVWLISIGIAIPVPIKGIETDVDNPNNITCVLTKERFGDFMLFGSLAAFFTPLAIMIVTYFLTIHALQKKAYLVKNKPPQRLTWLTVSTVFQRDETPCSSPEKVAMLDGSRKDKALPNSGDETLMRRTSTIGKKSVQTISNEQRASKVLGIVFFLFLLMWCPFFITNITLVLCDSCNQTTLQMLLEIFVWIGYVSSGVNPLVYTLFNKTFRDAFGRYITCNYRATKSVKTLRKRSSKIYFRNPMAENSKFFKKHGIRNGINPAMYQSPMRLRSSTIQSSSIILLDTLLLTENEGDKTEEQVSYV

[3] = cited from earlier work
5-HT2A [4] = biological target: T2, 5-HT2A; details: [125I]-DOI competition binding; cited from earlier work

T1 sequence (P14842 whole entry): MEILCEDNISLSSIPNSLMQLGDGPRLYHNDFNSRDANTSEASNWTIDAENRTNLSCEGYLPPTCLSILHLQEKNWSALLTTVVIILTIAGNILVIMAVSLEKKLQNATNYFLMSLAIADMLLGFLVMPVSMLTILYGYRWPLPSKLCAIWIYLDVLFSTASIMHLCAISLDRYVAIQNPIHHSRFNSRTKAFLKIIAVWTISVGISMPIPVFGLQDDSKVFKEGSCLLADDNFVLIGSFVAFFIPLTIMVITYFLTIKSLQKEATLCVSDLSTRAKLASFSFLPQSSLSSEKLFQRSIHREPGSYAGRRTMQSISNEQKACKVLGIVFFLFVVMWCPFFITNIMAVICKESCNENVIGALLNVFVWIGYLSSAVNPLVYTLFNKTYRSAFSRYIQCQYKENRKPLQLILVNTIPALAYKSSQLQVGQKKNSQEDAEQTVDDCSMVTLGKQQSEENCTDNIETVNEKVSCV
Chain of rat 5-HT2A receptors (P14842 whole entry): as above

| SMILES | Normalized Peak INa Inhibition (human Nav1.1 and Navβ1) | Peak INa Density (human Nav1.1 and Navβ1) [pA/pF] | Peak INa Density @ −20 mV (human Nav1.1 and Navβ1) [pA/pF] | reduction of baseline peak INa (human Nav1.1 and Navβ1) [%] | functional activity in 5-HT2A-mediated inward current recordings (5-HT2A receptors) | Ki (rat 5-HT2A receptors) [nM] | EC50 (5-HT2A [1]) [nM] | functional activity at the 5-HT2A receptor (5-HT2A [2]) | EC50 (5-HT2B) [nM] | oral activity (dose) [3] [mg] | Ki (5-HT2A [4]) [nM] |
| --- | --- | --- | --- | --- | --- | --- | --- | --- | --- | --- | --- |
| NC1=N[C@H](O)[C@H]2[C@H]3O[C@]4(O)O[C@@H]([C@@H](O)[C@@]2(N1)[C@@H]4O)[C@]3(O)CO [TTX, Tetrodotoxin, reference compound] | 0.870 ± 0.02 | −56.3 ± 9.4 | −15.84±2.16 | 87±2 | – | – | – | – | – | – | – |
| COc1cc(CCN)c(OC)cc1Br [2C-B] | – | – | – | – | antagonist | 0.66 | 2.1 | partial agonist | 57 | 12 to 24 | 0.88 |

From patent publication US20250388529A1, “N-Substituted Phenylalkylamines and Their Use as Therapeutic Agents” (priority 2023, published 2025)
